Data from ChEMBL document CHEMBL1201862, “PubChem BioAssay data set” (2004).
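Step 1: Grow cells in 96-well plates. Step 2: Expose to compound for 48 hours at 5 concentrations. Step 3: Interpolate endpoints linearly; if unreached, use highest concentration. Here, GI50 denotes the concentration required for 50% inhibition of growth.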 The source made the active and inactive calls. No stated cut-off is given here; in the data, active = GI50 up to about 1.1 µM and inactive = higher.

How the values were obtained:
Test in all cases: NCI anticancer screen, dose series, 48 h
786-0 = test system: 786-0
M14 = test system: M14
K562 = test system: K562
UACC-62 = test system: UACC-62
SW-620 = test system: SW-620
BT-549 = test system: BT-549
HCT-116 = test system: HCT-116
NCI-H226 = test system: NCI-H226
NCI-H460 = test system: NCI-H460
NCI-H23 = test system: NCI-H23
A498 = test system: A498
SN12C = test system: SN12C
CCRF-CEM = test system: CCRF-CEM
NCI/ADR-RES = test system: NCI/ADR-RES
KM12 = test system: KM12
SF-268 = test system: SF-268
CAKI-1 = test system: CAKI-1
COLO 205 = test system: COLO 205
SK-MEL-28 = test system: SK-MEL-28

Row | Compound | GI50 (786-0) | GI50 (M14) | GI50 (K562) | GI50 (UACC-62) | GI50 (SW-620) | GI50 (BT-549) | GI50 (HCT-116) | GI50 (NCI-H226) | GI50 (NCI-H460) | GI50 (NCI-H23) | GI50 (A498) | GI50 (SN12C) | GI50 (CCRF-CEM) | GI50 (NCI/ADR-RES) | GI50 (KM12) | GI50 (SF-268) | GI50 (CAKI-1) | GI50 (COLO 205) | GI50 (SK-MEL-28)
1 | C[n+]1cccc(/C=C/c2ccc3cccc(O)c3n2)c1 | > 100 µM (inactive) | > 100 µM (inactive) | 50.9 µM (inactive) | > 100 µM (inactive) | > 100 µM (inactive) | 84.9 µM (inactive) | > 100 µM (inactive) | > 100 µM (inactive) | 68.7 µM (inactive) | 58.2 µM (inactive) | > 100 µM (inactive) | 32.1 µM (inactive) | 45.7 µM (inactive) | > 100 µM (inactive) | > 100 µM (inactive) | 26.9 µM (inactive) | > 100 µM (inactive) | > 100 µM (inactive) | > 100 µM (inactive)
2 | CC(=O)[C@]1(O)Cc2c(O)c3c(c(O)c2C(OC2OC(C)C(O)C(O)C2F)C1)C(=O)c1ccccc1C3=O (some centres not stated) | 0.0288 µM (active) | 0.0951 µM (active) | 0.083 µM (active) | 0.0791 µM (active) | 0.0796 µM (active) | 0.358 µM (active) | 0.0565 µM (active) | 0.0265 µM (active) | < 0.01 µM (active) | 0.0371 µM (active) | 0.0581 µM (active) | 0.0247 µM (active) | < 0.0141 µM (active) | 0.318 µM (active) | 0.158 µM (active) | 0.084 µM (active) | 0.013 µM (active) | 0.259 µM (active) | 0.547 µM (active)
3 | C/C(=N\Nc1nc2ccccc2o1)c1ncccn1 | < 0.0252 µM (active) | < 0.0192 µM (active) | 0.012 µM (active) | 0.0646 µM (active) | < 0.01 µM (active) | 0.643 µM (active) | < 0.0175 µM (active) | 0.118 µM (active) | < 0.0234 µM (active) | 0.123 µM (active) | 0.332 µM (active) | < 0.0158 µM (active) | < 0.01 µM (active) | < 0.0163 µM (active) | 0.817 µM (active) | 0.32 µM (active) | < 0.01 µM (active) | < 0.01 µM (active) | 0.0405 µM (active)
4 | O=C(c1cc(Cl)cc(Cl)c1)N(Cc1cccnc1)C(=S)N(Cc1cccnc1)C(=O)c1cc(Cl)cc(Cl)c1 | 17.3 µM (inactive) | 26.4 µM (inactive) | 24.4 µM (inactive) | 45.7 µM (inactive) | 27.9 µM (inactive) | 29.2 µM (inactive) | 31.1 µM (inactive) | 52.1 µM (inactive) | 64.3 µM (inactive) | 63.1 µM (inactive) | 27.4 µM (inactive) | 41.4 µM (inactive) | 17.1 µM (inactive) | 37.4 µM (inactive) | 24.5 µM (inactive) | 41.3 µM (inactive) | 41.3 µM (inactive) | 15.3 µM (inactive) | 97.3 µM (inactive)
5 | COc1cc2c(cc1OC)C13CCN4CC5CCOC6CC(=O)N2C1C6C5CC43 (configuration not stated) | > 100 µM (inactive) | > 100 µM (inactive) |  | > 100 µM (inactive) | > 100 µM (inactive) | > 100 µM (inactive) | > 100 µM (inactive) | > 100 µM (inactive) | > 100 µM (inactive) | > 100 µM (inactive) | > 100 µM (inactive) | > 100 µM (inactive) | 54.5 µM (inactive) | > 100 µM (inactive) | > 100 µM (inactive) | > 100 µM (inactive) | > 100 µM (inactive) | > 100 µM (inactive) | > 100 µM (inactive)
6 | CC(C)NCC(O)c1cc(OCc2ccccc2)c(OCc2ccccc2)cc1NC(=O)CCC(=O)O (configuration not stated) | 7.52 µM (inactive) | 1.45 µM (inactive) | 1.92 µM (inactive) | 3.25 µM (inactive) | 2.61 µM (inactive) | 15.8 µM (inactive) | 5.22 µM (inactive) | 15.7 µM (inactive) | 1.85 µM (inactive) | 13.2 µM (inactive) | 11 µM (inactive) | 11.7 µM (inactive) | 2.58 µM (inactive) | 12.9 µM (inactive) | 4.28 µM (inactive) | 10.1 µM (inactive) | 8.75 µM (inactive) | 2.06 µM (inactive) | 4.08 µM (inactive)
7 | O=C(/C=C/c1ccccc1)C[C@@H](O)C[C@@H]1CC=CC(=O)O1 | 3.34 µM (inactive) | 5.81 µM (inactive) | 2.33 µM (inactive) | 8.97 µM (inactive) | 2.35 µM (inactive) | 11.4 µM (inactive) | 2.46 µM (inactive) | > 100 µM (inactive) | 16.3 µM (inactive) | 8.95 µM (inactive) | 16.7 µM (inactive) | 12.5 µM (inactive) | 1.85 µM (inactive) | 20.5 µM (inactive) | 4.67 µM (inactive) | 10.1 µM (inactive) | 14.2 µM (inactive) | 5.5 µM (inactive) | 11.5 µM (inactive)
8 | COc1ccc(Cn2c3c(cc(OS(=O)(=O)C(F)(F)F)c2=O)Cc2ccccc2-3)cc1 | 4.89 µM (inactive) | 6.65 µM (inactive) | 21.5 µM (inactive) | 10.5 µM (inactive) | 10.3 µM (inactive) | 24.9 µM (inactive) | 14.9 µM (inactive) | 26.7 µM (inactive) | 3.56 µM (inactive) | 19.7 µM (inactive) | > 50 µM (inactive) | 16.9 µM (inactive) | 6.27 µM (inactive) | 2.29 µM (inactive) | 26.4 µM (inactive) | 12.8 µM (inactive) | 20.9 µM (inactive) | 9.95 µM (inactive) | 18.7 µM (inactive)
9 | C1=N\c2ccc(cc2)-c2ccc(cc2)/N=C\c2ccc(cc2)OCc2cccc(n2)COc2ccc/1cc2 | > 100 µM (inactive) | > 100 µM (inactive) | > 100 µM (inactive) | > 100 µM (inactive) | > 100 µM (inactive) | > 100 µM (inactive) | > 100 µM (inactive) | 37 µM (inactive) | > 100 µM (inactive) | > 100 µM (inactive) | > 100 µM (inactive) | > 100 µM (inactive) | 97.7 µM (inactive) | 99.3 µM (inactive) | > 100 µM (inactive) | 16.1 µM (inactive) | > 100 µM (inactive) | > 100 µM (inactive) | > 100 µM (inactive)
10 | Cn1c(=O)c2nc(SCc3ccccn3)[nH]c2n(C)c1=S | 67.5 µM (inactive) | > 100 µM (inactive) | > 100 µM (inactive) | 34 µM (inactive) | > 100 µM (inactive) | > 100 µM (inactive) | > 100 µM (inactive) | 63.7 µM (inactive) | > 100 µM (inactive) | > 100 µM (inactive) | 23.3 µM (inactive) | 74.1 µM (inactive) | > 100 µM (inactive) | 90.4 µM (inactive) | > 100 µM (inactive) | > 100 µM (inactive) | > 100 µM (inactive) | > 100 µM (inactive) | > 100 µM (inactive)
11 | C[C@]12CC[C@@H]3c4cc(Br)c(O)c(Br)c4CC[C@H]3[C@@H]1CC(Br)C2=O (some centres not stated) | 4.24 µM (inactive) | 7.03 µM (inactive) | 2.29 µM (inactive) | 3.59 µM (inactive) | 3.36 µM (inactive) | 5 µM (inactive) | 3.66 µM (inactive) | 6.5 µM (inactive) | 5.82 µM (inactive) |  | 23.3 µM (inactive) | 4.53 µM (inactive) | 1.71 µM (inactive) | 4.63 µM (inactive) | 3.57 µM (inactive) | 5.68 µM (inactive) | 3.7 µM (inactive) | 7.87 µM (inactive) | 7.28 µM (inactive)
